The supplement of paper PMC13380429

Legend:
Details in all cases: 72 h
[1] = system: Caco-2; assay: cell viability relative to DMSO; higher = less toxic
[2] = system: Calu-3; assay: as above
[3] = system: HepG2; assay: as above
[4] = system: U2OS; assay: as above
[5] = system: Vero E6; assay: as above
[6] = system: Calu-3; assay: relative viability EC50 (midpoint between 100% and the lowest measured viability); higher = less toxic
[7] = system: HepG2; assay: as above
[8] = system: U2OS; assay: as above
[9] = system: Vero E6; assay: as above
[10] = system: Caco-2; assay: drug sensitivity score (DSS) for viability; higher = more toxic; extreme values may be limits of the assay
[11] = system: Calu-3; assay: as above
[12] = system: HepG2; assay: as above
[13] = system: U2OS; assay: as above
[14] = system: Vero E6; assay: as above
[15] = system: Caco-2; assay: relative viability EC50 (midpoint between 100% and the lowest measured viability); higher = less toxic

Structure (SMILES) | cell viability ([1]; 1 nM) | cell viability ([1]; 10 nM) | cell viability ([1]; 100 nM) | cell viability ([1]; 1000 nM) | cell viability ([1]; 10000 nM) | cell viability ([2]; 1 nM) | cell viability ([2]; 10 nM) | cell viability ([2]; 100 nM) | cell viability ([2]; 1000 nM) | cell viability ([2]; 10000 nM) | cell viability ([3]; 1 nM) | cell viability ([3]; 10 nM) | cell viability ([3]; 100 nM) | cell viability ([3]; 1000 nM) | cell viability ([3]; 10000 nM) | cell viability ([4]; 1 nM) | cell viability ([4]; 10 nM) | cell viability ([4]; 100 nM) | cell viability ([4]; 1000 nM) | cell viability ([4]; 10000 nM) | cell viability ([5]; 1 nM) | cell viability ([5]; 10 nM) | cell viability ([5]; 100 nM) | cell viability ([5]; 1000 nM) | cell viability ([5]; 10000 nM) | relative viability EC50 [6] | relative viability EC50 [7] | relative viability EC50 [8] | relative viability EC50 [9] | drug sensitivity score [10] | drug sensitivity score [11] | drug sensitivity score [12] | drug sensitivity score [13] | drug sensitivity score [14] | relative viability EC50 [15]
CCCc1c(-c2ccc(O)cc2)nn(-c2ccc(O)cc2)c1-c1ccc(O)cc1 [PPT] | 102% | 100% | 104% | 91% | 75% | 94.8% | 104% | 97.4% | 106% | 116% | 100% | 99.2% | 96% | 97% | 99.8% | 104% | 102% | 101% | 98.9% | 98.9% | 99.2% | 98.9% | 98.7% | 99.6% | 96% | > 10 µM | > 10 µM | > 10 µM | > 10 µM | 2.1 | 0 | 0 | 0 | 0 | 
CCCC(=O)O[C@]1(C(=O)CCl)[C@@H](C)C[C@H]2[C@@H]3CCC4=CC(=O)C=C[C@]4(C)[C@@]3(F)C(=O)C[C@@]21C [clobetasone-butyrate] | 94.7% | 103% | 94.1% | 94.3% | 74.6% | 96.1% | 112% | 97.3% | 100% | 89% | 96.2% | 104% | 97.9% | 90.3% | 88.5% | 93.1% | 96.1% | 91.8% | 95% | 87.9% | 108% | 102% | 109% | 98.5% | 93% | > 10 µM | > 10 µM | > 10 µM | > 10 µM | 1.7 | 0 | 0.3 | 0 | 0 | 
CCOCc1cc(OC)c(-c2ccc(C[C@H](NC(=O)c3c(F)cccc3F)C(=O)O)cc2)c(OC)c1 [firategrast] | 99.3% | 94.6% | 104% | 93.9% | 101% | 103% | 94.1% | 86.4% | 99.7% | 98.5% | 104% | 105% | 90.3% | 99.3% | 96.6% |  |  |  |  |  | 96.3% | 101% | 98.5% | 101% | 98% | > 10 µM | > 10 µM |  | > 10 µM | 0 | 0 | 0 |  | 0 | > 10 µM
O=C(O)CCCCC(CCSCc1ccccc1)SCc1ccccc1 (configuration not stated) [CPI-613] |  |  |  |  |  | 103% | 104% | 97.6% | 106% | 101% | 97.5% | 102% | 97.2% | 100% | 104% | 100% | 96.7% | 95.5% | 96.4% | 112% | 98.7% | 94.8% | 97.8% | 95.7% | 100% | > 10 µM | > 10 µM | > 10 µM | > 10 µM |  | 0 | 0 | 0 | 0 | 
OCC[N+]12CN3CN(CN(C3)C1)C2 [Y-11] | 102% | 108% | 97.2% | 101% | 99.2% | 97.6% | 90.1% | 98% | 102% | 99.1% | 97.6% | 90.5% | 102% | 102% | 110% |  |  |  |  |  | 102% | 99.1% | 106% | 96.2% | 100% | > 10 µM | > 10 µM |  | > 10 µM | 0 | 0 | 0 |  | 0 | > 10 µM
CC(C)(C)NC(=O)N[C@H](C(=O)N1C[C@H]2[C@@H]([C@H]1C(=O)NC(CC1CCC1)C(=O)C(N)=O)C2(C)C)C(C)(C)C (some centres not stated) [boceprevir] |  |  |  |  |  | 93.7% | 101% | 101% | 95.2% | 105% | 98.2% | 96.9% | 109% | 93.7% | 95.7% | 102% | 98.6% | 99.6% | 96.4% | 97.5% | 100% | 102% | 93.9% | 96.1% | 93.9% | > 10 µM | > 10 µM | > 10 µM | > 10 µM |  | 0 | 0 | 0 | 0 | 
Cc1c[nH]c(=O)n(CCCN2CCN(c3ccccc3OCC(F)(F)F)CC2)c1=O |  |  |  |  |  | 90.5% | 99% | 99.1% | 96.6% | 87.4% | 98.7% | 96.2% | 95.9% | 98.2% | 103% | 101% | 102% | 100% | 101% | 102% | 102% | 96.2% | 99.2% | 98.7% | 105% | > 10 µM | > 10 µM | > 10 µM | > 10 µM |  | 0.3 | 0 | 0 | 0 | 
CC(C)[C@@H](CS(=O)(=O)C(C)C)N1C(=O)[C@@](C)(CC(=O)O)C[C@H](c2cccc(Cl)c2)[C@H]1c1ccc(Cl)cc1 [AMG-232] | 99.6% | 97.7% | 94.2% | 91.3% | 82.9% | 99.9% | 92.4% | 93.1% | 96.7% | 93.8% | 102% | 96% | 85.9% | 33.5% | 24.4% | 98.5% | 95.5% | 97.4% | 71.2% | 65.8% | 96.8% | 99.1% | 98.4% | 58.1% | 44.6% | > 10 µM | 0.266 µM |  | 0.568 µM | 0.7 | 0 | 14 | 5.2 | 8.1 | > 10 µM
O=C(NCCCCCCNC(=O)ON=C1CCCCC1)ON=C1CCCCC1 | 105% | 98.1% | 98.3% | 103% | 102% | 98.4% | 95.9% | 108% | 98.8% | 99.6% | 99.2% | 104% | 100% | 94.6% | 93.9% |  |  |  |  |  | 98.8% | 103% | 99.5% | 100% | 105% | > 10 µM | > 10 µM |  | > 10 µM | 0 | 0 | 0 |  | 0 | > 10 µM
COc1ccc(C(=O)Nc2sc3c(c2C(N)=O)CCCC3)cc1OC [TCS-359] |  |  |  |  |  | 100% | 93.4% | 101% | 91.1% | 105% | 94.4% | 102% | 89.6% | 97.6% | 94.5% | 96.8% | 99% | 102% | 98.4% | 105% | 108% | 105% | 96% | 98.3% | 98.3% | > 10 µM | > 10 µM | > 10 µM | > 10 µM |  | 0 | 0 | 0 | 0 | 
COc1cc2c(cc1Cc1cccc(Cl)c1F)c(=O)c(C(=O)O)cn2[C@H](CO)C(C)C [elvitegravir] | 95.3% | 91.8% | 87.6% | 99.8% | 69.3% | 99.2% | 97.4% | 102% | 96.7% | 88.1% | 117% | 106% | 109% | 104% | 91% | 93.6% | 95.7% | 92.8% | 96.3% | 80.3% | 101% | 97.9% | 98% | 93.6% | 99.5% | > 10 µM | > 10 µM | > 10 µM | > 10 µM | 1.4 | 0.2 | 0 | 0.5 | 0 | 
O=c1[nH]c(CCl)nc2sc3c(c12)CCCC3 | 96.8% | 99.1% | 98.3% | 98.8% | 71% | 116% | 98.1% | 97.9% | 92% | 109% | 92.7% | 94.5% | 96.2% | 107% | 81.8% | 103% | 94.5% | 98.8% | 100% | 80.6% | 99.4% | 101% | 95.8% | 96.4% | 92.9% | > 10 µM | > 10 µM | > 10 µM | > 10 µM | 1.4 | 0 | 0.2 | 0.5 | 0 | 
O=C(Nc1ccc(C(O)(C(F)(F)F)C(F)(F)F)cc1)c1ccc(C(F)(F)F)cc1 [SR-1078] | 104% | 99.6% | 95.4% | 99.7% | 56.4% | 109% | 105% | 118% | 91.7% | 48.6% | 114% | 99.9% | 101% | 99% | 112% | 105% | 107% | 102% | 102% | 93.2% | 100% | 100% | 99.6% | 97.6% | 95.6% | 1.93 µM | > 10 µM | > 10 µM | > 10 µM | 2.3 | 4.1 | 0 | 0 | 0 | 
COC[C@@H](NC(C)=O)C(=O)NCc1ccccc1 [Lacosamide] | 92.8% | 90.5% | 81.7% | 98.8% | 106% | 99.1% | 99.5% | 90.6% | 114% | 110% | 98.3% | 97.5% | 98.3% | 98% | 96.1% |  |  |  |  |  | 98.5% | 97.4% | 86% | 90.6% | 104% | > 10 µM | > 10 µM | > 10 µM | > 10 µM | 0 | 0 | 0 | 0 | 0 | > 10 µM
O=S1(=O)N[C@H]2CCCN2c2ccccc21 | 100% | 96.7% | 88.4% | 104% | 113% | 93.3% | 106% | 108% | 104% | 101% | 96.8% | 99.3% | 89.7% | 104% | 86.7% |  |  |  |  |  | 101% | 100% | 98% | 89.5% | 96.7% | > 10 µM | > 10 µM |  | > 10 µM | 0 | 0 | 0.1 |  | 0 | > 10 µM
CCC[C@@H](NC(=O)N1C(=O)C(CC)(CC)[C@@H]1Oc1ccc(C(=O)N2CCN(C)CC2)cc1)c1ccc2c(c1)OCO2 [DMP-777] | 103% | 95% | 99.6% | 105% | 63.3% | 105% | 110% | 105% | 95.4% | 94.1% | 95.3% | 97.1% | 102% | 90.8% | 93% | 93.7% | 103% | 98.5% | 96.7% | 88% | 94.8% | 95.5% | 93.4% | 93.7% | 96.8% | > 10 µM | > 10 µM | > 10 µM | > 10 µM | 1.4 | 0 | 0 | 0.1 | 0 | 
